biological target: T1, Recombinant human EP300 containing the bromodomain (EP300-BD (1040-1161)) (Homo sapiens, UniProt Q09472); experiment: EP300 Alphascreen binding assay
T1 construct: Recombinant human EP300 bromodomain (EP300-BD (1040-1161)); made in house; host or cells: E. coli BL21-CodonPlus (DE3), modified pET vector
T1 sequence (Q09472 1040-1161): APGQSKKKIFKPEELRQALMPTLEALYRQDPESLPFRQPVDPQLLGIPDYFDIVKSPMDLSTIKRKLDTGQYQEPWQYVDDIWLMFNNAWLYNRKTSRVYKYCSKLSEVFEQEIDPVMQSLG
Summary of the method: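 Displacement of a biotinylated acetyl-K56 histone H3 peptide from the N-His bromodomain construct (1040-1161) measured by AlphaScreen proximity, beads at 7.5 μg/ml final, read 60 min after addition. Protein, peptide and compound first incubated 1 h at room temperature, pH 7.5 HEPES buffer; IC50 by four-parameter logistic fit.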

SMILES | IC50
Cc1noc(C)c1-c1cnc2c(c1)c(-c1ccnc(C(=O)O)c1C)cn2C(C1CC1)C1CC1 [P-0418, 4-(1-(dicyclopropylmethyl)-5-(3,5-dimethylisoxazol-4-yl)-1H-pyrrolo[2,3-b]pyridin-3-yl)-3-methylpicolinic acid] | 0.0001 to 1 µM
CCOc1cc(C(=O)O)nc(OCC)c1-c1cn(-c2cccnc2)c2ncc(-c3c(C)noc3C)cc12 [P-0436, 5-(5-(3,5-dimethylisoxazol-4-yl)-1-(pyridin-3-yl)-1H-pyrrolo[2,3-b]pyridin-3-yl)-4,6-diethoxypicolinic acid] | 0.0001 to 1 µM
CCOc1nc(C(=O)O)ccc1-c1cn(C2(C)CCOCC2)c2ncc(-c3c(C)noc3C)cc12 [P-0405, 5-(5-(3,5-dimethylisoxazol-4-yl)-1-(4-methyltetrahydro-2H-pyran-4-yl)-1H-pyrrolo[2,3-b]pyridin-3-yl)-6-ethoxypicolinic acid] | 0.0001 to 1 µM
Cc1nnn(C)c1-c1cnc2c(c1)c(-c1cccc(C(=O)O)c1)cn2[C@@H](C)c1ccccn1 [P-0449, (S)-3-(5-(1,4-dimethyl-1H-1,2,3-triazol-5-yl)-1-(1-(pyridin-2-yl)ethyl)-1H-pyrrolo[2,3-b]pyridin-3-yl)benzoic acid] | 0.0001 to 1 µM
CCOc1cc(C(=O)O)nc(OCC)c1-c1cn(-c2ccc(C#N)cc2F)c2ncc(-c3c(C)noc3C)cc12 [P-0423, 5-(1-(4-cyano-2-fluorophenyl)-5-(3,5-dimethylisoxazol-4-yl)-1H-pyrrolo[2,3-b]pyridin-3-yl)-4,6-diethoxypicolinic acid] | 0.0001 to 1 µM
CCOc1cc(C(=O)OC)nc(OCC)c1-c1cn(-c2ccc(F)cc2F)c2ncc(-c3c(C)noc3C)cc12 [P-0432, methyl 5-(1-(2,4-difluorophenyl)-5-(3,5-dimethylisoxazol-4-yl)-1H-pyrrolo[2,3-b]pyridin-3-yl)-4,6-diethoxypicolinate] | 0.0001 to 1 µM
CCOc1cc(C(=O)O)nc(OCC)c1-c1cn(C2CCC(F)(F)CC2)c2ncc(-c3c(C)noc3C)cc12 [P-0425, 5-(1-(4,4-difluorocyclohexyl)-5-(3,5-dimethylisoxazol-4-yl)-1H-pyrrolo[2,3-b]pyridin-3-yl)-4,6-diethoxypicolinic acid] | 0.0001 to 1 µM
CCOc1cc(C(=O)O)nc(OCC)c1-c1cn([C@@H](C)c2ccccn2)c2ncc(-c3c(C)noc3C)cc12 [P-0415, (S)-5-(5-(3,5-dimethylisoxazol-4-yl)-1-(1-(pyridin-2-yl)ethyl)-1H-pyrrolo[2,3-b]pyridin-3-yl)-4,6-diethoxypicolinic acid] | 0.0001 to 1 µM
CCOc1cc(C(=O)O)nc(OCC)c1-c1cn(-c2cnc(C3CC3)nc2)c2ncc(-c3c(C)noc3C)cc12 [P-0424, 5-(1-(2-cyclopropylpyrimidin-5-yl)-5-(3,5-dimethylisoxazol-4-yl)-1H-pyrrolo[2,3-b]pyridin-3-yl)-4,6-diethoxypicolinic acid] | 0.0001 to 1 µM
COc1cc(C(=O)O)ccc1-c1cn([C@@H](C)c2ccccn2)c2ncc(-c3c(C)noc3C)cc12 [P-0047, (S)-4-(5-(3,5-dimethylisoxazol-4-yl)-1-(1-(pyridin-2-yl)ethyl)-1H-pyrrolo[2,3-b]pyridin-3-yl)-3-methoxybenzoic acid] | 0.0001 to 1 µM
CCOc1cc(C(=O)O)ncc1-c1cn(C2CCOCC2)c2ncc(-c3c(C)noc3C)cc12 [P-0428, 5-(5-(3,5-dimethylisoxazol-4-yl)-1-(tetrahydro-2H-pyran-4-yl)-1H-pyrrolo[2,3-b]pyridin-3-yl)-4-ethoxypicolinic acid] | 0.0001 to 1 µM
CCOc1cc(C(=O)O)nc(OCC)c1-c1cn(C2CCN(C(=O)OC(C)(C)C)CC2)c2ncc(-c3c(C)noc3C)cc12 [P-0433, 5-(1-(1-(tert-butoxycarbonyl)piperidin-4-yl)-5-(3,5-dimethylisoxazol-4-yl)-1H-pyrrolo[2,3-b]pyridin-3-yl)-4,6-diethoxypicolinic acid] | 0.0001 to 1 µM
CCc1onc(C)c1-c1cnc2c(c1)c(-c1c(Cl)cc(C(=O)O)cc1OC(F)(F)F)cn2-c1ccc(C2CC2)nc1 [P-0448, 3-chloro-4-(1-(6-cyclopropylpyridin-3-yl)-5-(5-ethyl-3-methylisoxazol-4-yl)-1H-pyrrolo[2,3-b]pyridin-3-yl)-5-(trifluoromethoxy)benzoic acid] | 0.0001 to 1 µM
Cc1noc(C)c1-c1cnc2c(c1)c(-c1ccc(C(=O)O)c(Cl)c1)cn2C(c1ccccn1)C1CCCC1 (stereo not drawn) [P-0038, 2-chloro-4-(1-(cyclopentyl(pyridin-2-yl)methyl)-5-(3,5-dimethylisoxazol-4-yl)-1H-pyrrolo[2,3-b]pyridin-3-yl)benzoic acid] | 0.0001 to 1 µM
Cc1noc(C)c1-c1cnc2c(c1)c(-c1c(Cl)cc(C(=O)O)cc1OC(C)C)cn2C1(C)CCOC1 (stereo not drawn) [P-0408, 3-chloro-4-(5-(3,5-dimethylisoxazol-4-yl)-1-(3-methyltetrahydrofuran-3-yl)-1H-pyrrolo[2,3-b]pyridin-3-yl)-5-isopropoxybenzoic acid] | 0.0001 to 1 µM
Cc1noc(C)c1-c1cnc2c(c1)c(-c1c(Cl)cc(C(=O)O)cc1OC1CC1)cn2-c1ncccc1C#N [P-0409, 3-chloro-4-(1-(3-cyanopyridin-2-yl)-5-(3,5-dimethylisoxazol-4-yl)-1H-pyrrolo[2,3-b]pyridin-3-yl)-5-cyclopropoxybenzoic acid] | 0.0001 to 1 µM
CCOc1cc(C(=O)O)c(F)cc1-c1cn(C2CCN(C(=O)CO)CC2)c2ncc(-c3c(C)noc3C)cc12 [P-0447, 4-(5-(3,5-dimethylisoxazol-4-yl)-1-(1-(2-hydroxyacetyl)piperidin-4-yl)-1H-pyrrolo[2,3-b]pyridin-3-yl)-5-ethoxy-2-fluorobenzoic acid] | 0.0001 to 1 µM
COC(=O)c1cc(-n2cc(Cc3ccccc3)c3ncc(-c4c(C)noc4C)cc32)ccn1 [P-0052, methyl 4-(3-benzyl-6-(3,5-dimethylisoxazol-4-yl)-1H-pyrrolo[3,2-b]pyridin-1-yl)picolinate] | 0.0001 to 1 µM
Cc1noc(C)c1-c1cnc2c(c1)c(-c1c(F)cc(C(=O)O)cc1OC1CC1)cn2C(C1CC1)C1CC1 [P-0394, 3-cyclopropoxy-4-(1-(dicyclopropylmethyl)-5-(3,5-dimethylisoxazol-4-yl)-1H-pyrrolo[2,3-b]pyridin-3-yl)-5-fluorobenzoic acid] | 0.0001 to 1 µM
CCOc1nc(C(=O)O)c(C)cc1-c1cn(C(C2CC2)C2CC2)c2ncc(-c3c(C)noc3C)cc12 [P-0416, 5-(1-(dicyclopropylmethyl)-5-(3,5-dimethylisoxazol-4-yl)-1H-pyrrolo[2,3-b]pyridin-3-yl)-6-ethoxy-3-methylpicolinic acid] | 0.0001 to 1 µM
CCOc1cc(C(=O)O)nc(OCC)c1-c1cn(-c2ncccc2C#N)c2ncc(-c3c(C)noc3C)cc12 [P-0421, 5-(1-(3-cyanopyridin-2-yl)-5-(3,5-dimethylisoxazol-4-yl)-1H-pyrrolo[2,3-b]pyridin-3-yl)-4,6-diethoxypicolinic acid] | 0.0001 to 1 µM
Cc1nnn(C)c1-c1cnc2c(c1)c(-c1ccc(C(=O)O)cc1OC1CC1)cn2C1CCOCC1 [P-0413, 3-cyclopropoxy-4-(5-(1,4-dimethyl-1H-1,2,3-triazol-5-yl)-1-(tetrahydro-2H-pyran-4-yl)-1H-pyrrolo[2,3-b]pyridin-3-yl)benzoic acid] | 0.0001 to 1 µM
Cc1noc(C)c1-c1cnc2c(c1)c(-c1c(Cl)cc(C(=O)O)cc1OC1CCC1)cn2-c1ncccc1C#N [P-0396, 3-chloro-4-(1-(3-cyanopyridin-2-yl)-5-(3,5-dimethylisoxazol-4-yl)-1H-pyrrolo[2,3-b]pyridin-3-yl)-5-cyclobutoxybenzoic acid] | 0.0001 to 1 µM
Cc1noc(C)c1-c1cnc2c(c1)c(-c1cc(F)c(C(=O)O)cc1OC(F)(F)F)cn2-c1ccc(C2CC2)nc1 [P-0444, 4-(1-(6-cyclopropylpyridin-3-yl)-5-(3,5-dimethylisoxazol-4-yl)-1H-pyrrolo[2,3-b]pyridin-3-yl)-2-fluoro-5-(trifluoromethoxy)benzoic acid] | 0.0001 to 1 µM
Cc1noc(C)c1-c1cnc2c(c1)c(C#CC(C)(C)C(=O)O)cn2Cc1ccccc1 [P-0051, 4-(1-benzyl-5-(3,5-dimethylisoxazol-4-yl)-1H-pyrrolo[2,3-b]pyridin-3-yl)-2,2-dimethylbut-3-ynoic acid] | 0.0001 to 1 µM
Cc1noc(C)c1-c1cnc2c(c1)c(-c1ccnc(C(=O)O)c1)cn2Cc1ccccc1 [P-0042, 4-(1-benzyl-5-(3,5-dimethylisoxazol-4-yl)-1H-pyrrolo[2,3-b]pyridin-3-yl)picolinic acid] | 0.0001 to 1 µM
COc1ncc(-n2cc(-c3ccc(C(=O)O)cc3OC(F)(F)F)c3cc(-c4c(C)noc4C)cnc32)cn1 [P-0392, 4-(5-(3,5-dimethylisoxazol-4-yl)-1-(2-methoxypyrimidin-5-yl)-1H-pyrrolo[2,3-b]pyridin-3-yl)-3-(trifluoromethoxy)benzoic acid] | 0.0001 to 1 µM

Source: patent US11446287B2, “Compounds and methods for EP300 or CBP modulation and indications therefor” (Opna Immuno-Oncology SA, priority 2019, dated 2022)
